This series relates to rodent carcinogenicity bioassays, tumor incidence. Description: CCRIS carcinogenicity studies. Put shortly: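 Archive of carcinogenicity, mutagenicity, tumor promotion and tumor inhibition results drawn from journals, NCI reports and other sources, expert-reviewed; covers 1985-2011 and is no longer updated.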

Active and inactive are the calls of the source. The rule behind the calls is not given here.

From PubChem BioAssay AID1259411 (Chemical Carcinogenesis Research Information System (CCRIS), 2018) come the findings set out here.

`O.O=C([O-])c1ccccn1.O=C([O-])c1ccccn1.O=C([O-])c1ccccn1.[Cr+3]`: the carcinogen call by setting is: (Species: Mouse, Strain/Sex: B6C3F1 /Female (50/Group), Route: Oral, Dose: 0, 2000, 10,000, 50,000 ppm (average daily doses of 0; 240; 1200; 6100 mg/kg) in diet for 105 wk, Dose: 0, 2000, 10,000, 50,000 ppm (average daily doses of 0; 240; 1200; 6100 mg/kg) in diet for 105 wk) “inactive; negative”; (Species: Mouse, Strain/Sex: B6C3F1/Female (50/Group), Route: Oral, Dose: 0, 2,000, 10,000, 50,000 ppm in diet for 105 wk (Study duration: 105 wk), Dose: 0, 2,000, 10,000, 50,000 ppm in diet for 105 wk (Study duration: 105 wk)) “inactive; negative”; (Species: Mouse, Strain/Sex: B6C3F1/Male (50/Group), Route: Oral, Dose: 0, 2000, 10,000, 50,000 ppm (average daily doses of 0; 250; 1200; 6565 mg/kg) in diet for 105 wk, Dose: 0, 2000, 10,000, 50,000 ppm (average daily doses of 0; 250; 1200; 6565 mg/kg) in diet for 105 wk) “inactive; negative”; (Species: Mouse, Strain/Sex: B6C3F1/Male (50/Group), Route: Oral, Dose: 0, 2,000, 10,000, 50,000 ppm in diet for 105 wk (Study duration: 105 wk), Dose: 0, 2,000, 10,000, 50,000 ppm in diet for 105 wk (Study duration: 105 wk)) “inactive; negative”; (Species: Rat, Strain/Sex: F344/N / Female (50/Group), Route: Oral, Dose: 0, 2000, 10,000, 50,000 ppm (average daily doses of 0; 100; 510; 2630 mg/kg) in diet for 105 wk, Dose: 0, 2000, 10,000, 50,000 ppm (average daily doses of 0; 100; 510; 2630 mg/kg) in diet for 105 wk) “inactive; negative”; (Species: Rat, Strain/Sex: F344/N / Female (50/Group), Route: Oral, Dose: 0, 2,000, 10,000, 50,000 ppm in diet for 105 wk (Study duration: 105 wk), Dose: 0, 2,000, 10,000, 50,000 ppm in diet for 105 wk (Study duration: 105 wk)) “inactive; negative”. In addition, the carcinogen call runs as follows: (Species: Rat, Strain/Sex: F344/N / Male (50/Group), Route: Oral, Dose: 0, 2000, 10,000, 50,000 ppm (average daily doses of 0; 90; 460; 2400 mg/kg) in diet for 105 wk, Dose: 0, 2000, 10,000, 50,000 ppm (average daily doses of 0; 90; 460; 2400 mg/kg) in diet for 105 wk, Tumor Site: Type of Lesion: Preputial gland: adenoma (1/50, 1/50, 7/50, 4/50)) “equivocal”; (Species: Rat, Strain/Sex: F344/N / Male (50/Group), Route: Oral, Dose: 0, 2,000, 10,000, 50,000 ppm in diet for 105 wk (Study duration: 105 wk), Dose: 0, 2,000, 10,000, 50,000 ppm in diet for 105 wk (Study duration: 105 wk), Tumor Site: Type of Lesion: Preputial gland: adenoma (1, 1, 7, 4; P</=0.05 at 10,000 ppm only)) “inactive; negative. authors describe as equivocal evidence of carcinogenicity”.
On to `CCCCN(CCCC(=O)O)N=O`, for which the carcinogen call is “active; positive” (Species: MOUSE, Strain/Sex: B6D2F1/FEMALE, Route: ORAL, Dose: 0, 565 MG/L IN DRINKING WATER FOR 13 WK (STUDY DURATION: 28 WK), Tumor Site: Type of Lesion: URINARY BLADDER: TUMOR) and “active; positive” (Species: MOUSE, Strain/Sex: B6D2F1/MALE, Route: ORAL, Dose: 0, 565 MG/L IN DRINKING WATER FOR 13 WK (STUDY DURATION: 28 WK), Tumor Site: Type of Lesion: URINARY BLADDER: TUMOR).
On to `[C-]#[Si+]`, for which the carcinogen call (Species: RAT, Strain/Sex: AF/HAN, Route: INHALATION, Dose: 0, 1000 FIBERS/ML IN AIR 7 HR/D 5 D/WK FOR 1 YR (STUDY DURATION: LIFESPAN), Tumor Site: Type of Lesion: LUNG: ADENOMA, CARCINOMA) is “active; positive” and the carcinogen call (Species: RAT, Strain/Sex: F344/FEMALE, Route: INTRAPERITONEAL, Dose: 0, 20 MG SILICON CARBIDE WHISKERS ONCE (STUDY DURATION: LIFESPAN), Tumor Site: Type of Lesion: PLEURAL CAVITY: MESOTHELIOMA) was “active; positive”.
Regarding `ClCOCc1ccc(COCCl)cc1`, the carcinogen call was “active; positive” (Species: MOUSE, Strain/Sex: ICR/HA SWISS/FEMALE, Route: DERMAL, Dose: 0, 0.3 MG IN 0.1 ML CYCLOHEXANE 3/WK FOR 502 D (STUDY DURATION: 570 D), Tumor Site: Type of Lesion: SKIN: PAPILLOMA, SKIN: CARCINOMA) and “active; positive” (Species: MOUSE, Strain/Sex: ICR/HA SWISS/FEMALE, Route: SUBCUTANEOUS, Dose: 0, 0.3 MG IN 0.05 ML TRICAPRYLIN 1/WK FOR 569 D (STUDY DURATION: 570 D), Tumor Site: Type of Lesion: INJECTION SITE: SARCOMA).
Turning to `Oc1ccc(-c2cc(Cl)c(Cl)c(Cl)c2Cl)cc1`, the carcinogen call runs as follows: (Species: MOUSE, Strain/Sex: BALB/CCRGL/FEMALE, Route: SUBCUTANEOUS, Dose: 40 UG DAILY FOR 5 D BEGINNING 16 HR AFTER BIRTH (STUDY DURATION: 20 MO), Tumor Site: Type of Lesion: MAMMARY GLAND: CARCINOMA (4/30), CERVICOVAGINAL TRACT: CARCINOMA (4/30)) “active; positive”; (Species: MOUSE, Strain/Sex: BALB/CCRGL/FEMALE, Route: SUBCUTANEOUS, Dose: 400 UG DAILY FOR 5 D BEGINNING 16 HR AFTER BIRTH (STUDY DURATION: 20 MO), Tumor Site: Type of Lesion: CERVICOVAGINAL TRACT: CARCINOMA (5/24)) “active; positive”.
Turning to `CC(Cl)CCCC(Cl)CCCC(Cl)CCCC(Cl)CCCC(Cl)CCCC(Cl)CCCl` (stereo unspecified), the carcinogen call was “equivocal” (Species: MOUSE, Strain/Sex: B6C3F1/FEMALE, Route: GAVAGE, Dose: 0, 2500, 5000 MG/KG IN CORN OIL 5 D/WK FOR 103 WK (STUDY DURATION: 103 WK), Dose: 0, 2500, 5000 MG/KG IN CORN OIL 5 D/WK FOR 103 WK (STUDY DURATION: 103 WK), Tumor Site: Type of Lesion: LIVER: HEPATOCELLULAR ADENOMA, HEPATOCELLULAR CARCINOMA); “active; positive” (Species: MOUSE, Strain/Sex: B6C3F1/MALE, Route: GAVAGE, Dose: 0, 2500, 5000 MG/KG IN CORN OIL 5 D/WK FOR 103 WK (STUDY DURATION: 103 WK), Dose: 0, 2500, 5000 MG/KG IN CORN OIL 5 D/WK FOR 103 WK (STUDY DURATION: 103 WK), Tumor Site: Type of Lesion: HEMATOPOIETIC SYSTEM: MALIGNANT LYMPHOMA); “equivocal” (Species: RAT, Strain/Sex: F344/FEMALE, Route: GAVAGE, Dose: 0, 100, 300, 900 MG/KG IN CORN OIL 5 D/WK FOR 103 WK (STUDY DURATION: 103 WK), Dose: 0, 100, 300, 900 MG/KG IN CORN OIL 5 D/WK FOR 103 WK (STUDY DURATION: 103 WK), Tumor Site: Type of Lesion: ADRENAL GLAND: MEDULLARY PHEOCHROMOCYTOMA); “inactive; negative” (Species: RAT, Strain/Sex: F344/MALE, Route: GAVAGE, Dose: 0, 1875, 3750 MG/KG IN CORN OIL 5 D/WK FOR 103 WK (STUDY DURATION: 103 WK), Dose: 0, 1875, 3750 MG/KG IN CORN OIL 5 D/WK FOR 103 WK (STUDY DURATION: 103 WK)).
Regarding `CC(=O)OC/C=C(C)/C=C/C=C(C)/C=C/C1=C(C)CCCC1(C)C`, the carcinogen call runs as follows: (Species: RAT, Strain/Sex: F344/FEMALE, Route: ORAL, Dose: 0, 0.125, 0.25% IN DRINKING WATER (TOTAL DOSE: 0; 50; 95 G/KG) FOR 104 WK (STUDY DURATION: 108 WK), Dose: 0, 0.125, 0.25% IN DRINKING WATER (TOTAL DOSE: 0; 50; 95 G/KG) FOR 104 WK (STUDY DURATION: 108 WK), Tumor Site: Type of Lesion: ADRENAL GLAND: MALIGNANT OR BENIGN PHEOCHROMOCYTOMA, BENIGN PHEOCHROMOCYTOMA, BILATERAL LESIONS, CLITORAL GLAND: ADENOMA) “active; positive”; (Species: RAT, Strain/Sex: F344/MALE, Route: ORAL, Dose: 0, 0.125, 0.25% IN DRINKING WATER (TOTAL DOSE: 0; 50; 95 G/KG) FOR 104 WK (STUDY DURATION: 108 WK), Dose: 0, 0.125, 0.25% IN DRINKING WATER (TOTAL DOSE: 0; 50; 95 G/KG) FOR 104 WK (STUDY DURATION: 108 WK), Tumor Site: Type of Lesion: ADRENAL GLAND: MALIGNANT PHEOCHROMOCYTOMA, BENIGN PHEOCHROMOCYTOMA, BILATERAL LESIONS) “active; positive”.
For `COC(=O)C1=C(C)NC(C)=C(C(=O)OCCc2ccc(N3CCN(C(c4ccccc4)c4ccccc4)CC3)cc2)C1c1cccc([N+](=O)[O-])c1` (stereo unspecified), the carcinogen call was “inactive; negative” (Species: MOUSE, Strain/Sex: B6C3F1/FEMALE, Route: ORAL, Dose: 0, 30, 90, 300 PPM IN DIET FOR 18 MO (STUDY DURATION: 18 MO), Dose: 0, 30, 90, 300 PPM IN DIET FOR 18 MO (STUDY DURATION: 18 MO)); “inactive; negative” (Species: MOUSE, Strain/Sex: B6C3F1/MALE, Route: ORAL, Dose: 0, 30, 90, 300 PPM IN DIET FOR 18 MO (STUDY DURATION: 18 MO), Dose: 0, 30, 90, 300 PPM IN DIET FOR 18 MO (STUDY DURATION: 18 MO)); “inactive; negative” (Species: RAT, Strain/Sex: F344/FEMALE, Route: ORAL, Dose: 0, 30, 90, 300 PPM IN DIET FOR 24 MO (STUDY DURATION: 24 MO), Dose: 0, 30, 90, 300 PPM IN DIET FOR 24 MO (STUDY DURATION: 24 MO)); “inactive; negative” (Species: RAT, Strain/Sex: F344/MALE, Route: ORAL, Dose: 0, 30, 90, 300 PPM IN DIET FOR 24 MO (STUDY DURATION: 24 MO), Dose: 0, 30, 90, 300 PPM IN DIET FOR 24 MO (STUDY DURATION: 24 MO)).
